Data on three molecules can be found in paper PMC3742170, “Enzymatic Properties of Populus α- and β-NAD-ME Recombinant Proteins” (International Journal of Molecular Sciences, 2013).

In one series the target is T1, PtNAD-ME1 (Populus trichocarpa, UniProt A0ACC0TE46).
T1 construct: gene POPTR_002G135300v4; mature form without mitochondrial signal peptide; pGEX-6p-3, N-terminal GST cut with PreScission; E. coli BL21; about 67 kDa on SDS-PAGE; EC 1.1.1.39
T1 sequence (A0ACC0TE46 34-627): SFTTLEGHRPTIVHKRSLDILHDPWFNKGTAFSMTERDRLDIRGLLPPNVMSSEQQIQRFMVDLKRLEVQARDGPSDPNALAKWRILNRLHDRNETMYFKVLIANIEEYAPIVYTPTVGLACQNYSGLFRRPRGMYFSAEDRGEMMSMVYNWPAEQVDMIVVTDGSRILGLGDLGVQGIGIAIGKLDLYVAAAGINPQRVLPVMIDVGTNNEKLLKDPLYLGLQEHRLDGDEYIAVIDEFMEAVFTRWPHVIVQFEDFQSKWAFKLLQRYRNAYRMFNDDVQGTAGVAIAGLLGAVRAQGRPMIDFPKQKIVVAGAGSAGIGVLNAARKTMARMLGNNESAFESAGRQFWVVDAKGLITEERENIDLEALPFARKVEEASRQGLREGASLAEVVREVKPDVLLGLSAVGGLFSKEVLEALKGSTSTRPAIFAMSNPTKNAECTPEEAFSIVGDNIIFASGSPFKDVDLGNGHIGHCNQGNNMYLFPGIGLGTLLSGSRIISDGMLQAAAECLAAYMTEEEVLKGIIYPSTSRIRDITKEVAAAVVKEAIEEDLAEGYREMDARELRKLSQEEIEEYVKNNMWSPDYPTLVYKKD
Briefly: inhibition of malate decarboxylation, NADH at […] nm. Type of series: biochemical. Conditions: inhibitor; nonsaturating malate, saturating NAD, optimum pH 7.2.

In another series the target is T2, PtNAD-ME2 (Populus trichocarpa, UniProt B9MVC4).
T2 construct: gene POPTR_014G043700; mature form without mitochondrial signal peptide; pGEX-6p-3, N-terminal GST cut with PreScission; E. coli BL21
T2 sequence (B9MVC4 36-627): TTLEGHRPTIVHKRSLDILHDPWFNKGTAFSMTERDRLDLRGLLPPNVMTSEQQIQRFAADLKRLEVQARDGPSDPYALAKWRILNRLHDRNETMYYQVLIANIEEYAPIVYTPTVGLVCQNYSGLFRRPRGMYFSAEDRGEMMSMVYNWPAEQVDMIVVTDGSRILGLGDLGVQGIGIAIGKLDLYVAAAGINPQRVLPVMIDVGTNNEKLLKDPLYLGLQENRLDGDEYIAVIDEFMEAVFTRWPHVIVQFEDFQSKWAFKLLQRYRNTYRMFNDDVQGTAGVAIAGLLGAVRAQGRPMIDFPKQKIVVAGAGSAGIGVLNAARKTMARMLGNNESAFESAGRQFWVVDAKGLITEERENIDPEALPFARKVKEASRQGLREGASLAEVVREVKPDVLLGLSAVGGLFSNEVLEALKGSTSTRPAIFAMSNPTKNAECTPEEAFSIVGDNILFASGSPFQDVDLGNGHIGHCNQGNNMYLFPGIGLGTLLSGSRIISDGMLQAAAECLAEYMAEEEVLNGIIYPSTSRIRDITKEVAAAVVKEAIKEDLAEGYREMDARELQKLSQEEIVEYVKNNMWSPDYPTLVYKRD
Briefly: inhibition of malate decarboxylation, NADH at […] nm. The settings on record: inhibitor; nonsaturating malate, saturating NAD, optimum pH 7.2. Type of series: biochemical.

The next series addresses T3, PtNAD-ME4 (Populus trichocarpa, UniProt A0A2K1XS69).
T3 construct: gene POPTR_014G079900; mature form without mitochondrial signal peptide; pGEX-6p-3, N-terminal GST cut with PreScission; E. coli BL21
T3 sequence (A0A2K1XS69 22-607): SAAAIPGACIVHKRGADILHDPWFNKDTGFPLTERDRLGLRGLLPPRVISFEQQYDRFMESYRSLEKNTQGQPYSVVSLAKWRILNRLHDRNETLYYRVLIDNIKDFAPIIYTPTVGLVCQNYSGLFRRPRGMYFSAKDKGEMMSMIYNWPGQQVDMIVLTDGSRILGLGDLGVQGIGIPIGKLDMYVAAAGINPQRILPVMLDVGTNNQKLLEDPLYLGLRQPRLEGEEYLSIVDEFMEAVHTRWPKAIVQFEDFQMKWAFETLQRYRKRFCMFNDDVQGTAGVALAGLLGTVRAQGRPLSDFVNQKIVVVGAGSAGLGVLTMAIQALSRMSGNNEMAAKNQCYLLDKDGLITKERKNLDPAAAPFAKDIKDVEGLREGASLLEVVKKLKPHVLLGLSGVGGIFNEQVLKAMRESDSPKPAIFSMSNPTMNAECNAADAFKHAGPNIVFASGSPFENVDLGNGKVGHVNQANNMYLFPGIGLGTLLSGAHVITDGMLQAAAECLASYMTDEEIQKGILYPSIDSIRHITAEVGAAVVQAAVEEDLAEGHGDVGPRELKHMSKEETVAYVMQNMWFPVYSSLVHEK
Briefly: inhibition of malate decarboxylation, NADH at […] nm. Type of series: biochemical. Conditions: inhibitor; nonsaturating malate, saturating NAD, optimum pH 7.4.

The next series concerns the target T4, PtNAD-ME3 (Populus trichocarpa, UniProt B9GPX3).
T4 construct: gene POPTR_002G156000; mature form without mitochondrial signal peptide; pGEX-6p-3, N-terminal GST cut with PreScission; E. coli BL21; about 61 kDa on SDS-PAGE
T4 sequence (B9GPX3 23-607): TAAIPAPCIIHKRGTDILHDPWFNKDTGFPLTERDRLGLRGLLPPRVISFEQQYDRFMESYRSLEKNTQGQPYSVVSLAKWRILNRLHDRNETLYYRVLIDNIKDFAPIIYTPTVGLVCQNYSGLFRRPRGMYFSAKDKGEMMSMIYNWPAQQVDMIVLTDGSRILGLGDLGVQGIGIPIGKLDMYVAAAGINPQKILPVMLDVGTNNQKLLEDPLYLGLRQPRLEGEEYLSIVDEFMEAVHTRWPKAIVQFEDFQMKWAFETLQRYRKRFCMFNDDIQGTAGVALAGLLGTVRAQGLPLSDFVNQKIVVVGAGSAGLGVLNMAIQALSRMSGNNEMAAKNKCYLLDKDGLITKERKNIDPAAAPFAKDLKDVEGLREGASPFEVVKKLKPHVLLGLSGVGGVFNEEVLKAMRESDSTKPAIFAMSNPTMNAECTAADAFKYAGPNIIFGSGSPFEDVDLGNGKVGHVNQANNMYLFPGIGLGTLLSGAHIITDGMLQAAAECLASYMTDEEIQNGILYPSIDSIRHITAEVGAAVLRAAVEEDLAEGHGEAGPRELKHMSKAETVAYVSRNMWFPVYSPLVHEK
Briefly: inhibition of malate decarboxylation, NADH at […] nm. Type of series: biochemical. The settings on record: inhibitor; nonsaturating malate, saturating NAD, optimum pH 7.4.

Substrate in series [1]: NC(=O)c1ccc[n+]([C@@H]2O[C@H](COP(=O)(O)OP(=O)(O)OC[C@H]3O[C@@H](n4cnc5c(N)ncnc54)[C@H](O)[C@@H]3O)[C@@H](O)[C@H]2O)c1
Briefly: purified protein. The settings on record: saturating malate, 10 mM MnCl2, 150 mM Mes/NaOH, optimum pH 7.4. Type of series: biochemical, Populus trichocarpa.

Substrate in series [2]: O=C(O)C[C@H](O)C(=O)O
Briefly: purified protein. Type of series: biochemical, Populus trichocarpa. Conditions: saturating NAD, 10 mM MnCl2, 150 mM Mes/NaOH, optimum pH 7.4.

With `O=C(O)CC(=O)C(=O)O` [oxalacetate], the “% activity” value was “OAA and citrate inhibited the activities of all” on PtNAD-ME1; “OAA and citrate inhibited the activities of all” on PtNAD-ME2; “OAA and citrate inhibited the activities of all” on PtNAD-ME4; “OAA and citrate inhibited the activities of all” at PtNAD-ME3.
As for `O=C(O)CC(O)(CC(=O)O)C(=O)O` [citrate], the “% activity” value on PtNAD-ME1 is “OAA and citrate inhibited the activities of all”; on PtNAD-ME2, “OAA and citrate inhibited the activities of all”; at PtNAD-ME4, “OAA and citrate inhibited the activities of all”; at PtNAD-ME3, “OAA and citrate inhibited the activities of all”.

B1: PtNAD-ME3 (Populus trichocarpa) (protein)
chain: T4 sequence (B9GPX3 23-607)
notes: mature form without mitochondrial signal peptide; pGEX-6p-3, N-terminal GST cut with PreScission; E. coli BL21; about 61 kDa on SDS-PAGE
In general, Km refers to the substrate concentration at which the rate is half of its maximum. One may read the kcat as the number of substrate molecules converted per active site and unit of time at saturation. As a reminder, the kcat/Km is the second-order rate constant that governs catalysis at low substrate concentration. In the case of B1, in the series “purified protein [1]”, the Michaelis constant (Km) came out at 450 µM, the kcat was 1.3 s⁻¹ and the kcat/Km turned out to be 2900 M⁻¹ s⁻¹. In addition, the Km in “purified protein [2]” came out at 1300 µM.
